In US20090239868A1 (priority 2007, published 2009):

Test system: TGF-β induced PAI-1 production
Test: TGF-β induced PAI-1 production in HepG2 cells (Human Serpin E1/PAI-1 DuoSet)
Format: cell-based
Protocol: HepG2 cells were seeded on a 96-well culture plate by 2×10^4 cells/well, and were incubated for 24 hours in the MEM medium containing 1% NEAA (Non-Essential Amino Acids), 1 mM pyruvate, and 10% FBS. Then, the medium was changed to a MEM medium containing 1% NEAA, 1 mM pyruvate and 1% FBS, and the cells were further incubated for 24 hours. Subsequently, after the medium was changed to a MEM medium containing 1% NEAA, 1 mM pyruvate and 1% FBS, and then the cells were treated with the test substances (final concentration: 1 μM or 0.1 μM) for one hour, TGF-β1 (final concentration: 1 ng/mL) was added and the cells were further incubated for 24 hours. As controls, a culture solution added TGF-β1 only, and a culture solution cultured without neither the test substances nor TGF-β1 were prepared. After the incubation, the PAI-1 amount was measured using Human Serpin E1/PAI-1 DuoSet (R&D Systems). The PAI-1 amount when treated with TGF-β1 only being “100%”, and the PAI-1 amount when treated without neither the test substances nor TGF-β1 being “0%”, the PAI-1 inhibition ratios of each test substance were calculated.

Structure (SMILES) | Inhibition Ratio (PAI-1) (Compound Concentration: 1 μM) | Inhibition Ratio (PAI-1) (Compound Concentration: 0.1 μM)
COc1cc(NC(=O)c2cc(Cl)ccc2O)cc(-c2ccccc2)c1 [(53)] | 52.4% | –
CC(C)c1cccc(NC(=O)c2cc(Cl)ccc2O)c1 [(81)] | 40.0% | –
CC(C)(/C=C/c1ccccc1)c1ccc(O)c(C(=O)Nc2cc(C(F)(F)F)cc(C(F)(F)F)c2)c1 [(14)] | 86.6% | –
CCCCCCOc1cccc(NC(=O)c2cc(Cl)ccc2O)c1 [(95)] | 60.1% | –
O=C(Nc1cc(F)cc(C(F)(F)F)c1)c1cc(Cl)ccc1O [(37)] | >90% | –
CC(C)(C)c1ccc(NC(=O)c2cc(Cl)ccc2O)cc1 [(72)] | 71.4% | –
O=C(Nc1cc(C(F)(F)F)cc(C(F)(F)F)c1)c1cccc(Cl)c1O [(61)] | >90% | –
O=C(Nc1cc(C(F)(F)F)cc(C(F)(F)F)c1)c1cc([N+](=O)[O-])ccc1O [(8)] | 85.9% | 52.8%
O=C(Nc1ccc(OC(F)(F)F)cc1)c1cc(Cl)ccc1O [(70)] | >90% | –
CC(C)c1cc(Br)cc(C(=O)Nc2cc(C(F)(F)F)cc(C(F)(F)F)c2)c1O [(99)] | 89.4% | 59.1%
CC(=O)c1ccc(O)c(C(=O)Nc2cc(C(F)(F)F)cc(C(F)(F)F)c2)c1 [(26)] | 46.8% | –
O=C(Nc1ccc(Cl)cc1Cl)c1cc(Cl)ccc1O [(71)] | >90% | –
Cc1ccc(O)c(C(=O)Nc2cc(C(F)(F)F)cc(C(F)(F)F)c2)c1 [(10)] | 89.2% | –
CC(C)(C)c1cccc(NC(=O)c2cc(Cl)ccc2O)c1 [(92)] | >90% | –
O=C(Nc1ccc(Cl)cc1)c1cc(Br)ccc1O [(45)] | >90% | –
Cc1c(NC(=O)c2cc(Cl)ccc2O)cccc1C(F)(F)F [(40)] | >90% | –
N#Cc1ccc(NC(=O)c2cc(Br)ccc2O)cc1C(F)(F)F [(39)] | >90% | –
CCCCCCOc1ccc(S(C)(=O)=O)cc1NC(=O)c1cc(Cl)ccc1O [(64)] | 73.6% | –
O=C(Nc1ccc(F)c(F)c1)c1cc(Cl)ccc1O [(85)] | 84.0% | –
O=C(Nc1ccc(-c2ccccc2)cc1)c1cc(Cl)ccc1O [(96)] | 71.0% | –
O=C(Nc1cccc(C(F)(F)F)c1)c1cc(Cl)ccc1O [(67)] | >90% | –

Structure (SMILES) | Inhibition Ratio (PAI-1) (Compound Concentration: 1 μM) | Inhibition Ratio (PAI-1) (Compound Concentration: 0.1 μM)
CCCCCCc1ccc(NC(=O)c2cc(Cl)ccc2O)cc1 [(73)] | >90% | –
O=C(Nc1cccc(SC(F)(F)F)c1)c1cc(Cl)ccc1O [(82)] | >90% | –
Cc1cc(C)cc(NC(=O)c2cc(Br)ccc2O)c1 [(50)] | 66.0% | –
O=C(Nc1cc(C(F)(F)F)cc(C(F)(F)F)c1)c1cc(-c2ccccc2)ccc1O [(17)] | 82.9% | –
O=C(Nc1ccc(S(=O)(=O)C(F)(F)F)cc1)c1cc(Cl)ccc1O [(84)] | >90% | –
O=C(Nc1cccc(OC(F)(F)F)c1)c1cc(Cl)ccc1O [(68)] | >90% | –
O=C(Nc1cc(OCC(F)(F)F)cc(C(F)(F)F)c1)c1cc(Cl)ccc1O [(63)] | 79.5% | –
CC(C)(C)c1cc(NC(=O)c2cc(Cl)ccc2O)cc(C(C)(C)C)c1 [(51)] | 42.8% | –
O=C(Nc1cc(F)cc(F)c1)c1cc(Br)ccc1O [(46)] | >90% | –
O=C(Nc1cc(Cl)c(Cl)c(Cl)c1)c1cc(Br)ccc1O [(49)] | 70.7% | –
O=C(Nc1cc(C(F)(F)F)cc(C(F)(F)F)c1)c1ccc(-c2ccccc2)cc1O [(106)] | >90% | –
O=C(Nc1cccc(C(F)(F)F)c1F)c1cc(Cl)ccc1O [(35)] | >90% | –
O=C(Nc1cc(Cl)cc(Cl)c1)c1ccccc1O [(47)] | 35.6% | –
Cc1ccc(C(=O)Nc2cc(C(F)(F)F)cc(C(F)(F)F)c2)c(O)c1 [(56)] | >90% | –
CC(=O)Oc1ccccc1C(=O)Nc1cc(Cl)cc(Cl)c1 [(54)] | 78.9% | –
O=C(Nc1cc(Cl)cc(Cl)c1)c1ccc(Cl)cc1O [(48)] | >90% | –
O=C(Nc1cc(C(F)(F)F)cc(C(F)(F)F)c1)c1cc(C(F)(F)F)ccc1O [(19)] | >90% | 62.2%
O=C(Nc1cc(C(F)(F)F)cc(C(F)(F)F)c1)c1cc(C(F)(F)C(F)(F)F)ccc1O [(20)] | >90% | –
O=C(Nc1ccc(F)c(C(F)(F)F)c1)c1cc(Cl)ccc1O [(36)] | >90% | –
O=C(Nc1cc(C(F)(F)F)cc(C(F)(F)F)c1)c1c(O)cccc1F [(60)] | 38.1% | –
O=C(Nc1ccc(C2CCCCC2)cc1)c1cc(Cl)ccc1O [(74)] | 87.3% | –

Structure (SMILES) | Inhibition Ratio (PAI-1) (Compound Concentration: 1 μM) | Inhibition Ratio (PAI-1) (Compound Concentration: 0.1 μM)
O=C(Nc1cc(C(F)(F)F)cc(C(F)(F)F)c1)c1c(O)cccc1O [(55)] | >90% | –
O=C(Nc1cc(C(F)(F)F)cc(C(F)(F)F)c1)c1cc(Br)cc(-c2ccccc2)c1O [(103)] | >90% | –
CC(C)c1cccc(C(=O)Nc2cc(C(F)(F)F)cc(C(F)(F)F)c2)c1O [(98)] | 42.2% | –
Cc1ccc(-c2ccccc2)cc1NC(=O)c1cc(Cl)ccc1O [(66)] | 84.1% | –
N#Cc1ccc(O)c(C(=O)Nc2cc(C(F)(F)F)cc(C(F)(F)F)c2)c1 [(9)] | >90% | 59.4%
COC(=O)c1ccc(O)c(C(=O)Nc2cc(C(F)(F)F)cc(C(F)(F)F)c2)c1 [(28)] | >90% | –
CCCCc1ccc(NC(=O)c2cc(Cl)ccc2O)cc1 [(78)] | 80.6% | –
O=C(Nc1cccc(S(=O)(=O)C(F)(F)F)c1)c1cc(Cl)ccc1O [(94)] | >90% | –
O=C(Nc1cc(C(F)(F)F)cc(C(F)(F)F)c1)c1cccc(-c2ccccc2)c1O [(97)] | 79.5% | –
Cc1ccc(C(=O)C(C)(C)C)cc1NC(=O)c1cc(Cl)ccc1O [(65)] | 85.5% | –
Cc1cc(Br)cc(C(=O)Nc2cc(C(F)(F)F)cc(C(F)(F)F)c2)c1O [(100)] | >90% | –
CCC(C)c1ccc(NC(=O)c2cc(Cl)ccc2O)cc1 (stereo not drawn) [(87)] | 89.6% | –
O=C(Nc1ccc(C(F)(F)F)cc1)c1cc(Cl)ccc1O [(43)] | >90% | –
O=C(Nc1cc(C(F)(F)F)cc(C(F)(F)F)c1)c1cc(F)ccc1O [(5)] | >90% | 71.2%
O=C(Nc1cccc(Cl)c1)c1cc(Br)ccc1O [(44)] | 82.4% | –
O=C(Nc1cc(C(F)(F)F)cc(C(F)(F)F)c1)c1cc(Br)ccc1O [(6)] | >90% | 82.3%
O=C(Nc1ccccc1Cl)c1cc(Cl)ccc1O [(77)] | 74.3% | –
CC(C)(C)c1ccc(O)c(C(=O)Nc2cc(C(F)(F)F)cc(C(F)(F)F)c2)c1 [(11)] | 70.5% | –
O=C(Nc1cc(C(F)(F)F)cc(C(F)(F)F)c1)c1c(O)c(Cl)cc(Cl)c1Cl [(59)] | >90% | –
CC(C)(C#Cc1ccccc1)c1ccc(O)c(C(=O)Nc2cc(C(F)(F)F)cc(C(F)(F)F)c2)c1 [(15)] | >90% | –
CC(=O)Oc1ccccc1C(=O)Nc1cc(C(F)(F)F)cc(C(F)(F)F)c1 [(31)] | 75.2% | –
